Measured values from US10100335B2, “Microbial production of branched medium chain alcohols, such as 4-methylpentanol” (Massachusetts Institute of Technology, priority 2013, dated 2018).
≈ marks a conversion by molar mass, not a printed value.

Tests used:
[1] = target: T1, CarNi (Nocardia iowensis carboxylic acid reductase) (Nocardia iowensis, UniProt Q6RKB1); assay type: biochemical; details: for CarNi activity on aliphatic acid substrate: 13 straight and branched acids from C2-C8; for observed CarNi activity relative to activity on 4-methyl-valerate: in vitro, his-purified CarNi, 50 mM acid substrate
T1 construct: made in house; host or cells: E. coli BL21 Star (DE3) harboring pET/His-Car-RBS2-Sfp
T1 sequence (Q6RKB1 whole entry): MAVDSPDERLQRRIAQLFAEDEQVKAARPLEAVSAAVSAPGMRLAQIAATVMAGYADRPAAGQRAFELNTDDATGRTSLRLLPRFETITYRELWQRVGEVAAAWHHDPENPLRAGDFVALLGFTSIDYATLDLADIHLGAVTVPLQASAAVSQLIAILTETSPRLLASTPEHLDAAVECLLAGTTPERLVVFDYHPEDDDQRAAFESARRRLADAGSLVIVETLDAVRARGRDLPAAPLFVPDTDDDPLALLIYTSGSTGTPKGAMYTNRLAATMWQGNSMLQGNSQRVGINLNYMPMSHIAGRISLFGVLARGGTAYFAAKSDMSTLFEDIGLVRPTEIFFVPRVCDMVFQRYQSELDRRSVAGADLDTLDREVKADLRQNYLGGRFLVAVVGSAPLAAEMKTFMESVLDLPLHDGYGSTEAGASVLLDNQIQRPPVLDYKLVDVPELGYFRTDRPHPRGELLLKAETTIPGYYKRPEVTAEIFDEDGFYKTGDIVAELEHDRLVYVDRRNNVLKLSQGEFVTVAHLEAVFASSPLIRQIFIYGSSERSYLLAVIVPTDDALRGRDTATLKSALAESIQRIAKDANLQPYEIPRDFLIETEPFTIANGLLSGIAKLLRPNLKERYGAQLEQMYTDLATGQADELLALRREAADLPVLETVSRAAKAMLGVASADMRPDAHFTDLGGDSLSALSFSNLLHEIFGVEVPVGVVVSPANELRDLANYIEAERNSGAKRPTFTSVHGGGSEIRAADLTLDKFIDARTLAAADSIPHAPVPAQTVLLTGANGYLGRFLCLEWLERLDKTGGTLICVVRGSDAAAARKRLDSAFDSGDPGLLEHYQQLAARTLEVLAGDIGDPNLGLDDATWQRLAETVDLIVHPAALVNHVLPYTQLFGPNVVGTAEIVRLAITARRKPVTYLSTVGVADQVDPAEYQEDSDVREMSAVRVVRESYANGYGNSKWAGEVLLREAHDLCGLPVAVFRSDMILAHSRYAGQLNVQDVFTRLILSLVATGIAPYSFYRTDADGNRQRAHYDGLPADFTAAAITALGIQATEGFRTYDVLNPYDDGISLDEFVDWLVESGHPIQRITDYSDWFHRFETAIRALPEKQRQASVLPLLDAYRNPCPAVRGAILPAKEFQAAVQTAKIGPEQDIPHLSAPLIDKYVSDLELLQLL
Protocol: Strain M4 expressing car-sfp-ADH6 was fed five different acids at 10 mM initial concentration. Selectivity was determined by measuring normalized titers 5 hours post induction of gene expression. […] Initial rates were measured by monitoring NADPH consumption by measuring absorption at 340 nm.
Assays were devised to confirm activity on desired substrates in vitro and in vivo. In the first, N-terminal his-tagged CarNi was purified and assayed by UV absorption of NADPH with 13 straight and branched acids from C2-C8. […] A complementary in vivo assay was designed to examine the effectiveness of the Module 4 pairing. Butyrate, valerate. 3-methyl-valerate, 4-methyl-valerate, and hexanoate were fed to E. coli cultures expressing CarNi/ADH6Sc and conversion was monitored by sampling the culture media and liquid chromatography (LC).
Relative Activity Assay for Purified his-Car: An overnight culture of BL21 Star (DE3) (Invitrogen) harboring pET/His-Car-RBS2-Sfp was used as 10% (v/v) inoculum in 2 L of LB Broth. The culture was incubated at 30° C. and 250 rpm, and expression was induced using a final concentration of 1 mM IPTG at OD 0.6. Cells were harvested after 20 hours using centrifugation and resuspended in a buffer containing 50 mM Tris-HCl pH 8.0, 300 mM NaCl, and 10% glycerol. Cells were subsequently lysed using sonication. The supernatant was collected and applied to a column containing Ni-NTA resin (Qiagen). Affinity chromatography was performed using step-wise increasing concentrations of imidazole. Fractions containing purified His6-Car were dialyzed overnight at 4° C. into 50 mM Tris-HCl pH 7.5, 50 mM NaCl, 1 mM DTT, and 10% glycerol. Dialyzed enzyme was then flash frozen using liquid nitrogen and stored at −80° C. The activity of His-Car on various substrates was determined by changes in absorbance at 340 nm for up to 5 minutes in 96-well microplates using a plate reader (Tecan Infinite F200 Pro). Reactions were prepared as follows: 100 mM Tris-HCl pH 7.5, 10 mM MgCl2, 0.6 mM NADPH, 1 mM ATP, 224 nM His-Car, and 50 mM pH neutralized acid substrate. Changes in absorbance at 340 nm were detected using a filter. All substrates were assayed in triplicate. For KM and Vmax determinations, substrates were assayed at 5 different concentrations.

MG1655(DE3) endA recA = assay: Toxicity of exogenously added alcohols on exponential growth rate; assay type: cell-based, E. coli; details: for reduction in growth rate: 10 mM alcohol in LB medium with 1.2% glucose
Protocol: The exponential growth rate was unchanged by 4-methyl-1-pentanol concentrations exceeding those observed in final titers (193±23 mg/L) for the high producing Strain M1Fj(IA)2I34. The highest 4-methyl-1-pentanol concentration (10 mM, 1022 mg/L) did lead to a reduction in growth rate of 40%. […] If higher titers of 4-methyl-1-pentanol are achieved, in situ gas stripping or simple phase separation could potentially be used to extract 4-methyl-1-pentanol from the culture medium (Lee 1994).
Duplicate 3 ml cultures in LB+1.2% glucose+alcohol were inoculated to an initial OD600 of 0.1. Cultures were contained in the same 50 ml screw-cap tubes used in production experiments. […] Growth was monitored by optical density and the growth rate was calculated from a linear regression of the natural log of the OD600 values for the 1.5, 2, and 2.5 hour post-inoculation time points.

[2] = cited from earlier work

Row | Structure (SMILES) | CarNi activity on aliphatic acid substrate [1] | observed CarNi activity relative to activity on 4-methyl-valerate [1] | reduction in growth rate (MG1655(DE3) endA recA) | effect on exponential growth rate (MG1655(DE3) endA recA; concentrations up to 5 mM) | further results
1 | CC(=O)O [acetate] | reduced activity | – | – | – | –
2 | CCC(C)CCC(=O)O (stereo not drawn) [4-methyl-hexanoate] | highest activity | – | – | – | –
3 | CC(C)C(=O)O [isobutyrate] | reduced activity | 25% | – | – | Km ([1]; purified His-CarNi, initial rates by NADPH consumption at 340 nm): 78 ± 9 mM
4 | CC(C)CO [isobutanol] | – | – | 10% | did not inhibit | –
5 | CC(C)CCCO [4-methyl-1-pentanol] | – | – | 40% | did not inhibit | effect on exponential growth rate (MG1655(DE3) endA recA; concentrations exceeding those observed in final titers (193±23 mg/L)): unchanged; solubility in water [2]: 7400 µg/mL (≈ 72.4 mM)
6 | CCCC(=O)O [butyrate] | – | 56% | – | – | –
